Measurements: US10208074B2, “Pyrazole compounds and method for making and using the compounds” (Rigel Pharmaceuticals, Inc., priority 2015, dated 2019)
Counter-ions that a name gives are not always drawn. Like-named read-outs stand apart in the source and are kept apart here.

Assays:
IL-23 (p19/p40) = assay: IL23-p19 ELISA, Dendritic, LPS (compound screening using DC cells); assay type: cell-based, Human
Description: Compound Screening Using DC Cells
Human PBMC cells (400 million) obtained from the vendor were transferred into a T-175 flask containing 15 ml RPMI media (10% FBS) and incubate for 2 hours at 37° C. After 2 hours, the media including floating cells was aspirated out carefully and 12 ml of fresh RPMI media (10% FBS) containing GMCSF (100 ng/ml) and IL4 (20 ng/ml) was added, and the flask was kept in a 37° C. incubator for 7 days.
After 3 days, fresh GMCSF (100 ng/ml) and IL4 (20 ng/ml) were added to the flask and the incubation continued. After 7 days, the fully differentiated cells were harvested by spinning down (1200 rpm/5 min) and aspirating the media. The cells were suspended in fresh RPMI media (10% FBS) containing 50 ng/ml IFNγ (1000 U/ml) and then plated (50K/well in 100 μl) onto a white clear bottom 96 well plate and left in a 37° C. incubator for 24 hours.
After 24 hours incubation, 100 μl of RPMI media was added containing 2× concentrated test compound per well to the above cell-culture media (final concentration becomes 1×) and the plates were pre-incubated for 1 hour at 37° C. before stimulating with LPS.
After 1 hour compound pre-incubation, 10 piper well of 20× concentrated LPS solution in RPMI media was added to give a final concentration of 1 μg/ml. The mixture was shaken and incubated the plates at 37° C. for an additional 18 hours.
155 μl of the supernatant was harvested from each well carefully (without the tip touching the bottom of the well) and to the remaining 50 μl/well of the cell culture plate was added 50 μl of Cell Titer Glo reagent. The mixture was incubated for 1-2 minutes on a shaker and the plate was read for luminescence intensity to determine the compound cytotoxicity. The cell culture supernatant collected above was used to carry out IL23 ELISA (65 μl -Supernatant) and IL10 ELISA (90 μl—Supernatant) as described below.
Human IL-23 (p19/p40) ELISA Protocol (e-Biosciences)
To 10.5 ml PBS add 50 μl of anti-IL23 (p19) was added capture antibody (2.5 μg/ml). The mixture was mixed well and 100 μl of the coating solution was added to each well of the 96 well white plates from Pierce. The wells were covered and incubated overnight at 4° C.
The anti-IL23 (p19)-antibody-coated plates were washed 2× using TBST (use plate washer) and blocked using 200 μl of 0.5% Casein for 1.5-2 hours at room temperature with shaking.
The plates were washed 2× using TBST and the supernatant was transferred (65 μl/well) to the above pre-blocked/IL23(p19)-antibody-coated 96 well plate, and incubated at room temperature for 1.5 hours with shaking.
The plates were washed 4× using TBST (plate washer) and 100 μl/well detection antibody solution prepared from 2 μl of biotin labeled anti-IL-12 (p40/p70) antibody in 11 ml 1% BSA/PBS solution (1-5000 dilution) was added. The plates were incubated for 1 hour with shaking at Room temperature.
Again, the plates were washed 4× with TBST and 100 μl of HRP labeled Streptavidin (R&D Systems) solution (10 μl/10 ml 1% BSA solution) was added, and the plates were incubated at room temperature for another 45 minutes with shaking.
After 45 minutes, the plates were washed with TBST 4× and 100 ul/well Super Signal ELISA Pico Chemiluminescent Substrate from Pierce (3.5 ml A+3.5 ml B+3.5 ml MQ water) was added. The plates were shaken for 1-2 minutes then read on a plate reader.

IL-23p19 = assay: LPS induced IL23p19 in THP-1 cells (with IFNγ primed) assay; assay type: cell-based, Human
Procedure, shortened: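 THP-1 cells primed ~18 h with IFNγ (50 ng/mL), pre-incubated 1 h with compound at 37 °C, then stimulated 18 h with LPS (1 ug/mL final). Supernatant IL-23p19 measured by sandwich ELISA with chemiluminescent read-out; EC50 from curve fitting. Toxicity checked on the remaining cells by Cell Titer Glo.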

[1] = Homo sapiens, 18 h, PBMC-derived DC cells, IFNγ primed, LPS 1 μg/ml, 18 hours, 10 pt, read-out: IL23-p19 ELISA, Dendritic, LPS, 10 pt, EC50
[2] = Homo sapiens, THP-1, 18 h, THP-1 cells, IFNγ primed, LPS 1 ug/mL, 18 hours, 10 pt, read-out: IL23-p19 ELISA, THP1-IFNy, LPS, 10 pt EC50

SMILES | EC50 (IL-23 (p19/p40); [1]) [µM] | EC50 (IL-23p19; [2]) [µM] | other results
Cn1cc(NC(=O)c2ccc(-c3cn[nH]c3)o2)c(-c2ccc(OCC(C)(C)O)cn2)n1 [Compound I-107, N-(3-(5-(2-hydroxy-2-methylpropoxy)pyridin-2-yl)-1-methyl-1H-pyrazol-4-yl)-5-(1H-pyrazol-4-yl)furan-2-carboxamide] | 0.305 | 0.86 | –
CC(C)C(=O)N1CC(n2cc(NC(=O)c3ccc(-c4cn[nH]c4)o3)c(-c3ccccn3)n2)C1 [Compound I-95, N-[1-{1-Isobutyrylazetidin-3-yl}-3-(pyridine-2-yl)-1H-pyrazol-4-yl]-5-(1H-pyrazol-4-yl)furan-2-carboxamide, formate salt] | 0.0338 | 0.0678 | –
O=C(Nc1cn([C@H]2CC[C@H](O)CC2)nc1-c1ccccn1)c1ccc(-c2cn[nH]c2)o1 [Compound I-126, N-(1-((1r,4r)-4-hydroxycyclohexyl)-3-(pyridin-2-yl)-1H-pyrazol-4-yl)-5-(1H-pyrazol-4-yl)furan-2-carboxamide formate] | 0.0215 | 0.0819 | –
O=C(Nc1cn(C2CCOC2)nc1-c1nccs1)c1ccc(-c2cn[nH]c2)o1 (stereo not shown) [Compound I-120, 5-(1H-pyrazol-4-yl)-N-(1-(tetrahydrofuran-3-yl)-3-(thiazol-2-yl)-1H-pyrazol-4-yl)furan-2-carboxamide formate] | 0.0948 | 0.0528 | –
COCCn1cc(NC(=O)c2ccc(-c3cnn(C(=O)OC4(C)CC4)c3)o2)c(-c2ccccn2)n1 [Compound I-21, 1-methylcyclopropyl 4-(5-((1-(2-methoxyethyl)-3-(pyridin-2-yl)-1H-pyrazol-4-yl)carbamoyl)furan-2-yl)-1H-pyrazole-1-carboxylate] | 0.458 | 0.201 | –
O=C(Nc1cn([C@H]2CC[C@@H](O)C2)nc1-c1ccccn1)c1ccc(-c2cn[nH]c2)o1 [Compound I-134, N-(1-((1S,3R)-3-hydroxycyclopentyl)-3-(pyridin-2-yl)-1H-pyrazol-4-yl)-5-(1H-pyrazol-4-yl)furan-2-carboxamide formate] | 0.091 | 0.0296 | –
COCCOCCn1cc(NC(=O)c2ccc(-c3cn[nH]c3)o2)c(-c2nccs2)n1 [Compound I-64, N-(1-(2-(2-methoxyethoxy)ethyl)-3-(thiazol-2-yl)-1H-pyrazol-4-yl)-5-(1H-pyrazol-4-yl)furan-2-carboxamide] | 0.366 | 0.0777 | –
O=C(Nc1cn(C2CN(C(=O)NC3CC3)C2)nc1-c1ccccn1)c1ccc(-c2cn[nH]c2)o1 [Compound I-87, 3-[4-{5-(1H-Pyrazol-4-yl)furan-2-carboxamido}-3-(pyridine-2-yl)-1H-pyrazol-1-yl]-N-cyclopropylazetidine-1-carboxamide, formate salt] | 0.105 | 0.0433 | –
O=C(Nc1cn(C2CN(CC(F)(F)F)C2)nc1-c1ccccn1)c1ccc(-c2cn[nH]c2)o1 [Compound I-97, TFA salt] | 0.0329 | 0.0362 | –
CN1CC(n2cc(NC(=O)c3ccc(-c4cn[nH]c4)o3)c(-c3ccccn3)n2)C1 [Compound I-101, N-{1-(1-Methylazetidin-3-yl)-3-(pyridine-2-yl)-1H-pyrazol-4-yl}-5-(1H-pyrazol-4-yl)furan-2-carboxamide, formate salt] | 0.0501 | 0.0143 | –
COCCn1cc(NC(=O)c2ccc(-c3cnn(COP(=O)(O)O)c3)o2)c(-c2ccccn2)n1 [Compound I-14, sodium (4-(5-((1-(2-methoxyethyl)-3-(pyridin-2-yl)-1H-pyrazol-4-yl)carbamoyl)furan-2-yl)-1H-pyrazol-1-yl)methyl phosphate] | – | – | EC50 (IL-23 (p19/p40); Homo sapiens, 18 h, read-out: IL23-p19 ELISA, Dendritic, LPS, 10 pt, EC50 (μM)): 0.571 µM; EC50 (IL-23p19; Homo sapiens, THP-1, 18 h, read-out: IL23-p19 ELISA, THP1-IFNy, LPS, 10 pt EC50 (μM)): 1.25 µM
Cn1cc(NC(=O)c2ccc(-c3cnn(COP(=O)(OC(C)(C)C)OC(C)(C)C)c3)o2)c(-c2ccccn2)n1 [Compound I-80, Di-tert-butyl-[[4-{4-(5-((1-methyl-3-(pyridine-2-yl)-1H-pyrazol-4-yl)carbamoyl)furan-2-yl)-1H-pyrazol-1-yl}methyl] phosphate] | 2.06 | 2.22 | –
O=C(Nc1cn([C@H]2C[C@H](OCC(F)(F)F)C2)nc1-c1ccccn1)c1ccc(-c2cn[nH]c2)o1 [Compound I-128, 5-(1H-pyrazol-4-yl)-N-(3-(pyridin-2-yl)-1-(3-(2,2,2-trifluoroethoxy)cyclobutyl)-1H-pyrazol-4-yl)furan-2-carboxamide formate] | 0.0604 | 0.134 | –
CC(C)(C)OC(=O)N1CC(n2cc(NC(=O)c3ccc(-c4cn[nH]c4)o3)c(-c3ccccn3)n2)C1 [Compound I-70, tert-Butyl-3-[4-{5-(1H-pyrazole-4-yl)furan-2-carboxamido}-3-(pyridine-2-yl)-1H-pyrazol-1-yl]azetidine-1-carboxylate, formate salt] | – | – | EC50 (IL-23 (p19/p40); PBMC-derived DC cells, IFNγ primed, LPS 1 μg/ml, 18 hours, 10 pt, formate salt, read-out: IL23-p19 ELISA, Dendritic, LPS, 10 pt, EC50): 0.0283 µM; EC50 (IL-23p19; THP-1 cells, IFNγ primed, LPS 1 ug/mL, 18 hours, 10 pt, formate salt, read-out: IL23-p19 ELISA, THP1-IFNy, LPS, 10 pt EC50): 0.366 µM

More lines, main results first:

EC50 (IL-23 (p19/p40); [1]) [µM] | EC50 (IL-23p19; [2]) [µM] | SMILES | other results
0.112 | 0.13 | COc1ccc(-c2nn(C)cc2NC(=O)c2csc(-c3cn[nH]c3)n2)nc1 [II-58, N-(3-(5-methoxypyridin-2-yl)-1-methyl-1H-pyrazol-4-yl)-2-(1H-pyrazol-4-yl)thiazole-4-carboxamide] | –
0.0568 | 0.0343 | O=C(Nc1cn([C@H]2CC[C@@H](O)C2)nc1-c1ccccn1)c1csc(-c2cn[nH]c2)n1 (relative stereo) [II-149, N-(1-((cis)-3-hydroxycyclopentyl)-3-(pyridin-2-yl)-1H-pyrazol-4-yl)-2-(1H-pyrazol-4-yl)thiazole-4-carboxamide] | –
0.0557 | 0.0861 | O=C(Nc1cn(C2COC2)nc1-c1ccccn1)c1csc(-c2cn[nH]c2)n1 [II-34, N-(1-(oxetan-3-yl)-3-(pyridin-2-yl)-1H-pyrazol-4-yl)-2-(1H-pyrazol-4-yl)thiazole-4-carboxamide] | –
9.36 | – | O=C(Nc1cn(C(=O)N2CCOCC2)nc1-c1ccccn1)c1csc(-c2cn[nH]c2)n1 [II-131, N-(1-(morpholine-4-carbonyl)-3-(pyridin-2-yl)-1H-pyrazol-4-yl)-2-(1H-pyrazol-4-yl)thiazole-4-carboxamide formate] | EC50 (IL-23p19; THP-1 cells, IFNγ primed, LPS 1 ug/mL, 18 hours, 10 pt, formate, read-out: IL23-p19 ELISA, THP1-IFNy, LPS, 10 pt EC50): 0.36 µM
2.48 | 1.15 | CCN(CC)C(=O)n1cc(NC(=O)c2csc(-c3cn[nH]c3)n2)c(-c2ccccn2)n1 [II-128, N-(1-(diethylcarbamoyl)-3-(pyridin-2-yl)-1H-pyrazol-4-yl)-2-(1H-pyrazol-4-yl)thiazole-4-carboxamide] | –
0.0962 | 0.0949 | O=C(Nc1cn([C@H]2C[C@H](OCC(F)(F)F)C2)nc1-c1ncccc1F)c1csc(-c2cn[nH]c2)n1 [II-167, N-(3-(3-fluoropyridin-2-yl)-1-((trans)-3-(2,2,2-trifluoroethoxy)cyclobutyl)-1H-pyrazol-4-yl)-2-(1H-pyrazol-4-yl)thiazole-4-carboxamide] | –
